According to patent US7414072B2, “Aryl 5-thio-β-d-glucopyranoside derivatives and therapeutic agents for diabetes containing the same” (Taisho Pharmaceutical Co., Ltd., priority 2002, dated 2008):
Several values for one entry are separate records, joined by “and”; a condition that tells them apart may be missing. Equal entries are not always repeated.

melting point | Structure (SMILES)
206 to 208 °C | Nc1ccc(Cc2cc(Cl)ccc2O[C@@H]2S[C@H](CO)[C@@H](O)[C@H](O)[C@H]2O)cc1 [Compound 42, 2′-(4′-aminobenzyl)-4′-chlorophenyl 5-thio-β-D-glucopyranoside]
215.5 to 216 °C | NC(=O)c1ccc(Cc2ccccc2O[C@@H]2S[C@H](CO)[C@@H](O)[C@H](O)[C@H]2O)cc1 [Compound 85, 2′-(4′-carbamoylbenzyl)phenyl 5-thio-β-D-glucopyranoside]
124.5 to 127 °C | OC[C@H]1S[C@@H](Oc2ccc(Cl)cc2Cc2cccc(Oc3ccccc3)c2)[C@H](O)[C@@H](O)[C@@H]1O [Compound 62]
208 to 210 °C | OC[C@H]1S[C@@H](Oc2ccccc2Cc2ccc(-n3cccn3)cc2)[C@H](O)[C@@H](O)[C@@H]1O [Compound 43, 2′-(4′-pyrazol-1′-ylbenzyl)phenyl 5-thio-β-D-glucopyranoside]
146 to 148 °C | OC[C@H]1S[C@@H](Oc2ccc(Cl)cc2Cc2cccc(OC(F)(F)F)c2)[C@H](O)[C@@H](O)[C@@H]1O [Compound 69, 4′-chloro-2′-(3′-trifluoromethoxybenzyl)phenyl 5-thio-β-D-glucopyranoside]
154 to 156 °C | CCc1ccc(Cc2cc(C)ccc2O[C@@H]2S[C@H](CO)[C@@H](O)[C@H](O)[C@H]2O)cc1 [Compound 7, 2′-(4′-ethylbenzyl)-4′-methylphenyl 5-thio-β-D-glucopyranoside]
132 to 134 °C | CCc1ccc(Cc2cccc(O[C@@H]3S[C@H](CO)[C@@H](O)[C@H](O)[C@H]3O)c2)cc1 [Compound 49]
196.5 to 198.5 °C | CCOc1ccccc1Cc1cc(Cl)ccc1O[C@@H]1S[C@H](CO)[C@@H](O)[C@H](O)[C@H]1O [Compound 81, 4′-chloro-2′-(2′-ethoxybenzyl)phenyl 5-thio-β-D-glucopyranoside]
166 to 167.5 °C | COc1ccc(Cc2ccccc2O[C@@H]2S[C@H](CO)[C@@H](O)[C@H](O)[C@H]2O)cc1 [Compound 4, 2′-(4′-methoxybenzyl)phenyl 5-thio-β-D-glucopyranoside]
165 to 168 °C | CCCCc1ccc(Cc2cc(Cl)ccc2O[C@@H]2S[C@H](CO)[C@@H](O)[C@H](O)[C@H]2O)cc1 [Compound 46, 2′-(4′-butylbenzyl)-4′-chlorophenyl 5-thio-β-D-glucopyranoside]
100 to 105 °C | COc1cc(OC)c(Cc2ccccc2O[C@@H]2S[C@H](CO)[C@@H](O)[C@H](O)[C@H]2O)c(OC)c1 [Compound 65, 2′-(2′,4′,6′-trimethoxybenzyl)phenyl 5-thio-β-D-glucopyranoside]
238 to 242.5 °C | CCc1ccc(Cc2c(O)cccc2O[C@@H]2S[C@H](CO)[C@@H](O)[C@H](O)[C@H]2O)cc1 [Compound 14, 2′-(4′-ethylbenzyl)-3′-hydroxyphenyl 5-thio-β-D-glucopyranoside]
152 to 153 °C | Cc1ccc(Nc2ccccc2O[C@@H]2S[C@H](CO)[C@@H](O)[C@H](O)[C@H]2O)cc1 [Compound 34, 2′-(p-Toluidino)phenyl 5-thio-β-D-glucopyranoside]
143 to 144.5 °C | CCCCCOc1ccc(Cc2cc(Cl)ccc2O[C@@H]2S[C@H](CO)[C@@H](O)[C@H](O)[C@H]2O)cc1 [Compound 72, 4′-chloro-2′-(4′-pentyloxybenzyl)phenyl 5-thio-β-D-glucopyranoside]
197 to 200 °C | Cc1csc(Cc2ccccc2O[C@@H]2S[C@H](CO)[C@@H](O)[C@H](O)[C@H]2O)n1 [Compound 37]
235 to 236.5 °C | CC(=O)Nc1ccc(Cc2cc(Cl)ccc2O[C@@H]2S[C@H](CO)[C@@H](O)[C@H](O)[C@H]2O)cc1 [Compound 47, 2′-(4′-acetylaminobenzyl)-4′-chlorophenyl 5-thio-β-D-glucopyranoside]
172 to 173.5 °C | CCc1ccc(Cc2cc(Br)ccc2O[C@@H]2S[C@H](CO)[C@@H](O)[C@H](O)[C@H]2O)cc1 [Compound 10, 4′-bromo-2′-(4′-ethylbenzyl)phenyl 5-thio-β-D-glucopyranoside]
150.5 to 151.5 °C | OC[C@H]1S[C@@H](Oc2ccc(Cl)cc2Cc2ccccc2Cc2ccccc2)[C@H](O)[C@@H](O)[C@@H]1O [Compound 79]
148 to 150 °C | OC[C@H]1S[C@@H](Oc2ccccc2OCc2ccccc2)[C@H](O)[C@@H](O)[C@@H]1O [Compound 25]
175 to 177.5 °C | CCn1cc(Cc2ccccc2O[C@@H]2S[C@H](CO)[C@@H](O)[C@H](O)[C@H]2O)cn1 [Compound 54]
174 to 176.5 °C | OC[C@H]1S[C@@H](Oc2ccccc2Cc2ccc(N3CCOCC3)cc2)[C@H](O)[C@@H](O)[C@@H]1O [Compound 73, 2′-(4′-morpholinobenzyl)phenyl 5-thio-β-D-glucopyranoside]

melting point | Structure (SMILES)
128 to 130 °C | OC[C@H]1S[C@@H](Oc2ccc(Cl)cc2Cc2ccccc2CCc2ccccc2)[C@H](O)[C@@H](O)[C@@H]1O [Compound 78]
148 to 148.5 °C | OC[C@H]1S[C@@H](Oc2ccccc2Cc2ccc(C3CC3)cc2)[C@H](O)[C@@H](O)[C@@H]1O [Compound 90, 2′-(4′-cyclopropylbenzyl)phenyl 5-thio-β-D-glucopyranoside]
180 to 182 °C | O=[N+]([O-])c1ccc(Cc2cc(Cl)ccc2O[C@@H]2S[C@H](CO)[C@@H](O)[C@H](O)[C@H]2O)cc1 [Compound 41, 4′-chloro-2′-(4′-nitrobenzyl)phenyl 5-thio-β-D-glucopyranoside]
196 to 198 °C | CCc1ccc(Cc2cc(C(=O)OC)ccc2O[C@@H]2S[C@H](CO)[C@@H](O)[C@H](O)[C@H]2O)cc1 [Compound 15, 2′-(4′-ethylbenzyl)-4′-methoxycarbonylphenyl 5-thio-β-D-glucopyranoside]
193.5 to 194 °C | CN(C)C(=O)c1ccc(Cc2ccccc2O[C@@H]2S[C@H](CO)[C@@H](O)[C@H](O)[C@H]2O)cc1 [Compound 86, 2′-(4′-N,N-dimethylaminocarbonylbenzyl)phenyl 5-thio-β-D-glucopyranoside]
96 to 105 °C | O=C(Nc1ccccc1)c1cc(Cl)ccc1O[C@@H]1S[C@H](CO)[C@@H](O)[C@H](O)[C@H]1O [Compound 27]
147 to 149 °C | Cc1ccccc1Cc1cc(Cl)ccc1O[C@@H]1S[C@H](CO)[C@@H](O)[C@H](O)[C@H]1O [Compound 82, 4′-chloro-2′-(2′-methylbenzyl)phenyl 5-thio-β-D-glucopyranoside]
172 to 174 °C | OC[C@H]1S[C@@H](Oc2ccc(Cl)cc2Cc2ccc(Cl)cc2Cl)[C@H](O)[C@@H](O)[C@@H]1O [Compound 70, 4′-chloro-2′-(2′,4′-dichlorobenzyl)phenyl 5-thio-β-D-glucopyranoside]
144 to 145 °C | CCc1cccc(Cc2ccccc2O[C@@H]2S[C@H](CO)[C@@H](O)[C@H](O)[C@H]2O)c1 [Compound 57]
175.5 to 180 °C | CCc1ccc(Cc2ccc(OCOC)cc2O[C@@H]2S[C@H](CO)[C@@H](O)[C@H](O)[C@H]2O)cc1 [Compound 20, 2′-(4′-ethylbenzyl)-5′-(methoxymethyloxy)phenyl 5-thio-β-D-glucopyranoside]
79 to 82.5 °C | CC(C)(C)c1ccc(Cc2cc(Cl)ccc2O[C@@H]2S[C@H](CO)[C@@H](O)[C@H](O)[C@H]2O)cc1 [Compound 75, 2′-(4′-t-butylbenzyl)-4′-chlorophenyl 5-thio-β-D-glucopyranoside]
177 to 180 °C | Cc1ccc(Cc2ccccc2O[C@@H]2S[C@H](CO)[C@@H](O)[C@H](O)[C@H]2O)nc1 [Compound 36]
170 to 173 °C | OC[C@H]1S[C@@H](Oc2ccc(Cl)cc2Cc2ccccc2F)[C@H](O)[C@@H](O)[C@@H]1O [Compound 44, 4′-chloro-2′-(2′-fluorobenzyl)phenyl 5-thio-β-D-glucopyranoside]
72 to 80 °C | CCc1ccc(Cc2cc(Cl)cc(Cl)c2O[C@@H]2S[C@H](CO)[C@@H](O)[C@H](O)[C@H]2O)cc1 [Compound 31, 4′,6′-dichloro-2′-(4′-ethylbenzyl)phenyl 5-thio-β-D-glucopyranoside]
174 to 176.5 °C | CCSc1ccc(Cc2ccccc2O[C@@H]2S[C@H](CO)[C@@H](O)[C@H](O)[C@H]2O)cc1 [Compound 48, 2′-(4′-ethylthiobenzyl)phenyl 5-thio-β-D-glucopyranoside]
183.5 to 185 °C | OC[C@H]1S[C@@H](Oc2ccc(Cl)cc2Cc2c(F)cccc2Cl)[C@H](O)[C@@H](O)[C@@H]1O [Compound 59, 2′-(2′-chloro-6′-fluorobenzyl)-4′-chlorophenyl 5-thio-β-D-glucopyranoside]
173.5 to 177.5 °C | CCc1ccc(Cc2cc(Cl)ccc2O[C@@H]2S[C@H](CO)[C@@H](O)[C@H](O)[C@H]2O)cc1 [Compound 2, 4′-chloro-2′-(4′-ethylbenzyl)phenyl 5-thio-β-D-glucopyranoside]
137 to 138.5 °C | CCc1ccc(Cc2ccc(O[C@@H]3S[C@H](CO)[C@@H](O)[C@H](O)[C@H]3O)cc2)cc1 [Compound 50]
112 to 118 °C | OC[C@H]1S[C@@H](Oc2c(Cc3c(F)cccc3Cl)cc(Cl)cc2Cc2c(F)cccc2Cl)[C@H](O)[C@@H](O)[C@@H]1O [Compound 53]
202.5 to 205 °C | CCc1ccc(Cc2cc(CO)ccc2O[C@@H]2S[C@H](CO)[C@@H](O)[C@H](O)[C@H]2O)cc1 [Compound 13, 2′-(4′-ethylbenzyl)-4′-(hydroxymethyl)phenyl 5-thio-β-D-glucopyranoside]
148.5 to 149.5 °C | Cn1cc(Cc2ccccc2O[C@@H]2S[C@H](CO)[C@@H](O)[C@H](O)[C@H]2O)cn1 [Compound 55]

Structure (SMILES) | melting point
CCc1ccc(Cc2ccc(COC(C)=O)cc2O[C@@H]2S[C@H](CO)[C@@H](O)[C@H](O)[C@H]2O)cc1 [Compound 77, 5′-(acetoxymethyl)-2′-(4′-ethylbenzyl)phenyl 5-thio-β-D-glucopyranoside] | 158 to 160 °C
CCc1ccc(Cc2ccccc2O[C@@H]2S[C@H](CO)[C@@H](O)[C@H](O)[C@H]2O)cc1 [Compound 1, 2′-(4′-ethylbenzyl)phenyl 5-thio-β-D-glucopyranoside] | 154 to 160 °C and 154 to 169 °C and 156.5 to 157.5 °C
